Data published in ChEMBL document CHEMBL4359871, “Novel electrophilic amides amenable by the Ugi reaction perturb thioredoxin system via thioredoxin reductase 1 (TrxR1) inhibition: Identification of DVD-445 as a new lead compound for anticancer therapy” (Eur J Med Chem, 2019).
Active and inactive are the calls of the source. The rule behind the calls is not given here.

What was measured:
[1] = target: T1, Thioredoxin reductase 1, cytoplasmic (Homo sapiens, UniProt Q16881); assay: Inhibition of TrxR in human SH-SY5Y cells using DTNB as substrate preincubated for 15 mins followed by substrate addition and measured for 20 mins by Ellman's method; assay type: cell-based
T1 sequence (Q16881 whole entry): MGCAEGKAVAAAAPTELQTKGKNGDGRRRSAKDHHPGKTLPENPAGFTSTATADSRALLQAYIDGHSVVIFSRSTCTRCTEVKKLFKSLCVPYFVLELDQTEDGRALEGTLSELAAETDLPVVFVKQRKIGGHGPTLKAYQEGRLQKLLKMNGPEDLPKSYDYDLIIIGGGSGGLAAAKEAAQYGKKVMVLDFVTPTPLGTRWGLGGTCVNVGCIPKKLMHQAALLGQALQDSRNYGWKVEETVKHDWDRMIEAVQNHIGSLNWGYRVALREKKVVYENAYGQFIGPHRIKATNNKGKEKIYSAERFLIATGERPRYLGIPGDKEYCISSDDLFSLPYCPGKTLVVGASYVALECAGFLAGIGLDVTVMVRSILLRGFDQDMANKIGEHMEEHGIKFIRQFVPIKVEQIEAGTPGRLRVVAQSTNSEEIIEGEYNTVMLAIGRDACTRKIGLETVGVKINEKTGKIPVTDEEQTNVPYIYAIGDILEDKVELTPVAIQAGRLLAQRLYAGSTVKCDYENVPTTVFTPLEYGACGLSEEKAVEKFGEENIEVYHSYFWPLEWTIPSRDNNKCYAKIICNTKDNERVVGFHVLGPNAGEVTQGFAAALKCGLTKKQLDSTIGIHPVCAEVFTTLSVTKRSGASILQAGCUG

HaCaT [2] = assay: Induction of apoptosis in human HaCaT cells assessed as late apoptotic cells incubated for 48 hrs by annexin V FITC and propidium iodide staining based flow cytometry (reference value: 0.46 %); assay type: cell-based
PBMC = assay: Cytotoxicity against human PBMC assessed as reduction in cell viability incubated for 72 hrs by MTT assay; assay type: cell-based
[3] = target: T2, Thioredoxin reductase 1, cytoplasmic (Rattus norvegicus) (UniProt O89049); assay: […] inhibition of rat TrxR1 using DTNB as substrate preincubated for 15 mins in presence of NADPH followed by substrate addition and measured for 20 mins by Ellman's method
T2 sequence (whole entry): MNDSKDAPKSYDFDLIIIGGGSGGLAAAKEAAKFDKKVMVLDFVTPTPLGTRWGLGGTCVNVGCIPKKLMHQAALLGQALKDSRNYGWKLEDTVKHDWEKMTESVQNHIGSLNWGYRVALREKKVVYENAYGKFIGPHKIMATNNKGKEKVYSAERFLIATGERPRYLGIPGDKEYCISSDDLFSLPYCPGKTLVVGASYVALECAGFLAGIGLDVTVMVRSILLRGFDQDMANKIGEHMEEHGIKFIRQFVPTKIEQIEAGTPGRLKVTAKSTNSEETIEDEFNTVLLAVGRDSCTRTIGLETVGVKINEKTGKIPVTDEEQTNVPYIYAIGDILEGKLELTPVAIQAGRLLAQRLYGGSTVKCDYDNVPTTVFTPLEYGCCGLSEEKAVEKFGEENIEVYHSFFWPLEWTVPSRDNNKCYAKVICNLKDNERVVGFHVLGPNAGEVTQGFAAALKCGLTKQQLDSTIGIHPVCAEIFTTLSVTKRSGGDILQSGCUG

SH-SY5Y [4] = assay: Cytotoxicity against human SH-SY5Y cells assessed as reduction in cell viability incubated for 72 hrs by MTT assay; assay type: functional, cell-based
[5] = target: T3, Thioredoxin reductase 1, cytoplasmic (Rattus norvegicus, UniProt O89049); assay: Inhibition of rat TrxR1 using DTNB as substrate preincubated for 15 mins followed by substrate addition and measured for 20 mins by Ellman's method
T3 sequence (O89049 whole entry): T2 sequence (whole entry)

U-87 MG [6] = assay: Induction of RNS generation in human U87 cells incubated for 24 hrs by DHR staining based flow cytometry; assay type: functional, cell-based; conditions: U-87MG ATCC
SH-SY5Y [7] = assay: Induction of ROS generation in human SH-SY5Y cells incubated for 24 hrs by DHE staining based flow cytometry; assay type: functional, cell-based
U-87 MG [8] = assay: Cytotoxicity against human U87 cells assessed as reduction in cell viability incubated for 72 hrs by MTT assay; assay type: functional, cell-based, U-87MG ATCC
SH-SY5Y [9] = assay: Induction of apoptosis in human SH-SY5Y cells assessed as early apoptotic cells incubated for 48 hrs by annexin V FITC and propidium iodide staining based flow cytometry (reference value: 0.44 %); assay type: functional
HaCaT [10] = assay: Cytotoxicity against human HaCaT assessed as reduction in cell viability incubated for 72 hrs by MTT assay; assay type: cell-based
SH-SY5Y [11] = assay: Induction of apoptosis in human SH-SY5Y cells assessed as late apoptotic cells incubated for 48 hrs by annexin V FITC and propidium iodide staining based flow cytometry (reference value: 1.37 %); assay type: functional
[12] = Induction of apoptosis in human HaCaT cells assessed as viable cells incubated for 48 hrs by annexin V FITC and propidium iodide staining based flow cytometry (reference value: 95.78 %); assay type: cell-based; conditions: read-out: Activity
HaCaT [13] = assay: Induction of RNS generation in human HaCaT cells incubated for 24 hrs by DHR staining based flow cytometry; assay type: cell-based
SH-SY5Y [14] = assay: Induction of apoptosis in human SH-SY5Y cells assessed as viable cells incubated for 48 hrs by annexin V FITC and propidium iodide staining based flow cytometry (reference value: 92.44 %); assay type: functional
HaCaT [15] = assay: Induction of ROS generation in human HaCaT cells incubated for 24 hrs by DHE staining based flow cytometry; assay type: cell-based
U-87 MG [16] = assay: Induction of ROS generation in human U87 cells incubated for 24 hrs by DHE staining based flow cytometry; assay type: functional, cell-based; conditions: U-87MG ATCC
HaCaT [17] = assay: Induction of apoptosis in human HaCaT cells assessed as necrotic cells incubated for 48 hrs by annexin V FITC and propidium iodide staining based flow cytometry (reference value: 2.74 %); assay type: cell-based
SH-SY5Y [18] = assay: Induction of RNS generation in human SH-SY5Y cells incubated for 24 hrs by DHR staining based flow cytometry; assay type: functional
HaCaT [19] = assay: Induction of apoptosis in human HaCaT cells assessed as early apoptotic cells incubated for 48 hrs by annexin V FITC and propidium iodide staining based flow cytometry (reference value: 0.02 %); assay type: cell-based
[20] = target: T1, Thioredoxin reductase 1, cytoplasmic; assay: Inhibition of TrxR1 (unknown origin) using DTNB as substrate preincubated for 30 mins in presence of insulin followed by substrate addition by colorimetry
SH-SY5Y [21] = assay: Induction of apoptosis in human SH-SY5Y cells assessed as necrotic cells incubated for 48 hrs by annexin V FITC and propidium iodide staining based flow cytometry (reference value: 5.75 %); assay type: functional

Compound | IC50 [1] | inhibition [3] | IC50 [5] | Activity (HaCaT [2]) | IC50 (PBMC) | IC50 (SH-SY5Y [4]) | Activity (U-87 MG [6]) | Activity (SH-SY5Y [7]) | IC50 (U-87 MG [8]) | Activity (SH-SY5Y [9]) | IC50 (HaCaT [10]) | Activity (SH-SY5Y [11]) | viability at 48 h [12] | Activity (HaCaT [13]) | Activity (SH-SY5Y [14]) | Activity (HaCaT [15]) | Activity (U-87 MG [16]) | Activity (HaCaT [17]) | Activity (SH-SY5Y [18]) | Activity (HaCaT [19]) | further results
Cc1ccc(C(=O)/C=C/C(=O)N(C2CC2)C(C(=O)NC2CCCCC2)c2ccc(F)cc2)cc1 (configuration not stated) | 29.3 µM | – | – | – | – | – | – | – | – | – | – | – | – | – | – | – | – | – | – | – | –
COc1ccc(C(C(=O)NC2CCCCC2)N(CC(C)C)C(=O)/C=C/C(=O)c2ccc(C)cc2)cc1 (configuration not stated) | > 200 µM | – | – | – | – | – | – | – | – | – | – | – | – | – | – | – | – | – | – | – | –
COc1ccccc1C(C(=O)NC1CCCCC1)N(C(=O)/C=C/C(=O)c1ccc(C)cc1)C1CCCCC1 (configuration not stated) | 51.2 µM | Active | 3.12 µM | 1.15% | 1.62 µM | 1.77 µM | inactive | inactive | 1.41 µM | 0.25% | 1.56 µM | 0.92% | 89.1% | Non-Toxic | 57.22% | Non-Toxic | inactive | 9.65% | >=30% | 0.07% | IC50 [20]: 5.28 µM; Activity (SH-SY5Y [21]): 41.62%
COc1cc(/C=C/C(=O)N2CCC=CC2=O)cc(OC)c1OC [PIPLARTINE] | – | – | – | – | – | 5.94 µM | – | – | 7.18 µM | – | 3.03 µM | – | – | – | – | – | – | – | – | – | –
Cc1ccc(C(=O)C[C@H]2C(=O)N(C3CCCCC3)[C@H](c3cccnc3)C(=O)N2Cc2ccccc2)cc1 (racemic) | > 200 µM | – | – | – | – | – | – | – | – | – | – | – | – | – | – | – | – | – | – | – | –
COc1ccc(C(C(=O)NC(C)(C)C)N(C(=O)/C=C/C(=O)c2ccc(C)cc2)C2CC2)cc1OC (configuration not stated) | 76.6 µM | – | – | – | – | – | – | – | – | – | – | – | – | – | – | – | – | – | – | – | –

The next lines start with results.

IC50 [1] | inhibition [3] | IC50 [5] | Compound | Activity (HaCaT [2]) | IC50 (PBMC) | IC50 (SH-SY5Y [4]) | Activity (U-87 MG [6]) | Activity (SH-SY5Y [7]) | IC50 (U-87 MG [8]) | Activity (SH-SY5Y [9]) | IC50 (HaCaT [10]) | Activity (SH-SY5Y [11]) | viability at 48 h [12] | Activity (HaCaT [13]) | Activity (SH-SY5Y [14]) | Activity (HaCaT [15]) | Activity (U-87 MG [16]) | Activity (HaCaT [17]) | Activity (SH-SY5Y [18]) | Activity (HaCaT [19]) | further results
8.58 µM | Active | 1.25 µM | COc1cc(C(C(=O)NC(C)(C)C)N(CCC(C)C)C(=O)/C=C/C(=O)c2ccc(F)cc2)cc(OC)c1OC (configuration not stated) | 5.06% | 7.29 µM | 2.96 µM | inactive | inactive | 2.92 µM | 0.07% | 1.05 µM | 0.39% | 65.3% | Non-Toxic | 37.57% | Non-Toxic | inactive | 29.45% | >=30% | 0.14% | IC50 [20]: 2.51 µM; Activity (SH-SY5Y [21]): 61.97%
30.5 µM | – | – | CCCCN(C(=O)/C=C/C(=O)c1ccc(F)cc1)C(C(=O)NCc1ccccc1)C(C)(C)C (configuration not stated) | – | – | – | – | – | – | – | – | – | – | – | – | – | – | – | – | – | –
7.26 µM | Active | 0.6 µM | CN(CCOC(=O)/C=C/C(=O)c1ccc(F)cc1)C(C(=O)NC(C)(C)C)c1ccc(F)cc1 (configuration not stated) | 0.83% | 55.7 µM | 11 µM | inactive | inactive | 9.7 µM | 2.57% | 8.3 µM | 6.73% | 93.9% | Non-Toxic | 75.74% | Non-Toxic | inactive | 5.21% | inactive | 0.03% | IC50 [20]: 0.96 µM; Activity (SH-SY5Y [21]): 14.96%
31.8 µM | Active | 4.2 µM | Cc1ccc(C(=O)/C=C/C(=O)N(C2CC2)C(C(=O)NCc2ccccc2)c2ncc(C)cn2)cc1 (configuration not stated) | 1.06% | 15.3 µM | 4.94 µM | inactive | inactive | 15.2 µM | 1.1% | 5.45 µM | 2.91% | 91.7% | Non-Toxic | 81.45% | Non-Toxic | inactive | 7.18% | inactive | 0.07% | IC50 [20]: 6.61 µM; Activity (SH-SY5Y [21]): 14.54%
17.4 µM | Active | 0.93 µM | CC(C)(C)NC(=O)C(c1ccc(F)cc1)N(C(=O)/C=C/C(=O)c1ccc(F)cc1)C1CC1 (configuration not stated) | 0.77% | 5.6 µM | 0.56 µM | inactive | inactive | 0.8 µM | 0.6% | 1.06 µM | 1.54% | 94% | Non-Toxic | 86.76% | Non-Toxic | inactive | 5.21% | inactive | 0.07% | IC50 [20]: 0.82 µM; Activity (SH-SY5Y [21]): 11.11%
> 200 µM | – | – | Cc1ccc(C(=O)/C=C/C(=O)N(CC(C)C)C(C(=O)NC(C)(C)C)C(C)(C)C)cc1 (configuration not stated) | – | – | – | – | – | – | – | – | – | – | – | – | – | – | – | – | – | –
16 µM | Active | 1.74 µM | COc1ccc(C(C(=O)NC(C)(C)C)N(C(=O)/C=C/C(=O)c2ccc(C)cc2)C(C)C)cc1 (configuration not stated) | 2.92% | 2.1 µM | 0.9 µM | inactive | inactive | 0.46 µM | 0.71% | 0.83 µM | 2.14% | 78.8% | Non-Toxic | 71.35% | Non-Toxic | inactive | 18.16% | >=30% | 0.22% | IC50 [20]: 0.76 µM; Activity (SH-SY5Y [21]): 25.8%
81.6 µM | – | – | CCCN(C(=O)/C=C/C(=O)c1ccc(C)cc1)C(C(=O)NC1CCCCC1)c1ccc(C)cc1 (configuration not stated) | – | – | – | – | – | – | – | – | – | – | – | – | – | – | – | – | – | –
